# Laboratory results as given in article PMC7112222, “Investigation of pyrimidine nucleoside analogues as chemical probes to assess compound effects on the proliferation of Trypanosoma cruzi intracellular parasites” (PLoS Neglected Tropical Diseases, 2020).
# Where two headings read alike, the source gives them in different places.
# How the values were obtained:
# [1] = test system: T. cruzi intracellular amastigotes; assay: Image-based assay of the number of T. cruzi infected cells (intracellular amastigotes in 3T3 host cells); assay type: cell-based, Trypanosoma cruzi; details: for T. cruzi Wash off IC50 value: compound wash off, further 72 hours without compound; for inhibition at 183 µM: read-out: inhibition of T. cruzi growth at highest test concentration
# Experimental: (§1) Parasites and host cells were maintained as outlined previously. Briefly, host 3T3 fibroblasts (ATCC, CCL-92) were grown in RPMI medium (Thermo Fisher Scientific, USA) with no phenol red, supplemented with 10% FBS (Thermo Fisher Scientific, USA) and incubated at 37°C in 5% CO2. Host cells were harvested at 70% confluency and were split every 2–3 days in 175 cm^2 flasks. 3T3 cells were cultured up to passage 7 as contact inhibition was reduced or lost at higher passages. Prior to infection with T. cruzi trypomastigotes, host cells were seeded at 1.2 x 10^6 cells in 75 cm^2 or 4 x 10^5 cells in 25 cm^2 flasks and grown for 24 hours before parasite addition. Parasites were added at a multiplicity of infection (MOI) of 10:1 and incubated for 24 hours before non-infected trypomastigotes were washed off the host cell bed with PBS supplemented with Ca^2+ and Mg^2+ (Thermo Fisher Scientific, USA). Incubation was continued for a further 3 days, until tissue culture trypomastigotes began to egress from host cells. Egressed parasites were used for assays or to continue the infective life cycle in vitro.
# (§2) The activity of the nucleoside analogues against T. cruzi intracellular amastigotes following 24, 48 hours exposure and compound wash off, was determined using image-based techniques as previously described. Briefly, 14-point serial dilutions of the compounds in 100% DMSO were prepared and then further diluted in sterile water at a ratio of 1:21 compound: water. Five microliters of the diluted compounds were added to wells of T. cruzi infected host cells, using a MiniTrak compound handling device (Perkin Elmer, USA) with final concentrations in the plate ranging from 183 μM to 4.6 x 10^−4 μM. All experiments were performed with two separate biological replicates.
# IC50 values for inhibitory activity of both the nucleoside analogues tested as DNA probes and known inhibitors tested to determine their effect on replication of T. cruzi were calculated in GraphPad Prism 5, using sigmoidal dose response with variable slope. […] The p-value for difference in the % activity at Emax concentrations for compounds with known activity (EdU identified parasites, compared to Hoechst identified parasites) against T. cruzi was determined using GraphPad Prism 5, using an unpaired student’s t-test. […] The Emax for each compound was at least two data points in from the beginning of the plateau of activity in the IC50 curve, as previously described.
# [2] = test system: T. cruzi intracellular amastigotes; assay: Detection of T. cruzi replication following exposure to inhibitors (EdU incorporation vs Hoechst); assay type: cell-based, Trypanosoma cruzi; details: for IC50: 48 hours exposure, mean ± SD
# Experimental: The addition of host cells, parasites and compounds were as described for the T. cruzi image based method previously reported. […] Addition of nuclear and cytoplasmic dyes was undertaken as previously reported and images captured on an Opera confocal image-based system at 20x magnification. Image analysis was performed with a script developed in Columbus software (CHEMICAL LABEL INCORPORATION SCRIPT). Control wells were also imaged at an increased, 60x magnification to show the distribution of staining and the structure of the parasites within host cells. Eight background control wells consisted of infected host cells, fixed and exposed to Hoechst and the click chemistry cocktail, without the addition of the chemical probe EdU. […] All images taken were not modified and were taken on an Opera, confocal image-based reader.
# 3T3 cells = assay: Image-based assay, effect on 3T3 host cells; assay type: cell-based; details: 48 h, highest test concentration 183 μM
# Experimental: as §1
# as §2, with “The activity of the nucleoside analogues against T. cruzi intracellular amastigotes following 24, 48 hours exposure and compound wash off, was determined using image-based techniques as previously described.” left out
# Image analysis was performed with a script developed in Columbus software (CHEMICAL LABEL INCORPORATION SCRIPT). Control wells were also imaged at an increased, 60x magnification to show the distribution of staining and the structure of the parasites within host cells. Eight background control wells consisted of infected host cells, fixed and exposed to Hoechst and the click chemistry cocktail, without the addition of the chemical probe EdU. […] The percentage activity of compounds against parasite number / infected cells (identified with Hoechst) was calculated against a positive control of 12 μM of NFX for the parasite and 30 μM of PURO the host cells; and a negative control of 0.47% DMSO. All images taken were not modified and were taken on an Opera, confocal image-based reader.
# T. cruzi amastigote DNA = assay: Incorporation of pyrimidine nucleoside analogues into T. cruzi amastigote DNA (click chemistry, colocalisation with Hoechst); assay type: cell-based, Trypanosoma cruzi; details: for incorporation (no incorporation observed): concentrations up to a maximum of 73 μM
# Experimental: T. cruzi infected 3T3 fibroblasts were initially exposed to nucleoside analogues for 48 hours at concentrations ranging from 73 μM to 1.8 x10^-4 μM. Host cell, parasite and compound additions were carried out as previously described. Cells were then stained using a click chemistry azide cocktail, followed by Hoechst to identify nuclear material, as previously reported. The freshly prepared azide cocktail consisted of a final concentration of 5 μM of Alexa Fluor 488 azide (Thermo Fisher Scientific, USA), 1 mM copper sulfate (Sigma Aldrich, USA) and 100 mM sodium ascorbate (Sigma Aldrich, USA), in DPBS. Wells were imaged on an Opera image-based reader (Perkin Elmer, USA) at 20x magnification with 405 nm (defined as Hoechst channel) and 488 nm (defined as Alexa 488 channel) lasers using filter sets/bandwidth (emission) of 450/50 nm and 540/75 nm, respectively. To determine nucleoside analogue incorporation into T. cruzi amastigote DNA, a script was developed utilising the Columbus (PerkinElmer, USA) image-based analysis and data handling platform (CHEMICAL LABEL INCORPORATION SCRIPT). Nucleoside analogues were also tested for DNA incorporation following 2, 4 and 24 hours exposure, at the same concentrations. All experiments were performed in duplicate. The colocalisation of nucleoside analogues and Hoechst (replicating parasites) at each time point (48, 4 and 2 hours) was compared using GraphPad Prism 5.
# A CHEMICAL LABEL INCORPORATION SCRIPT developed in Columbus firstly identified Hoechst stained parasites within host cells by spot analysis, utilizing the same building block analysis as we had previously developed to determine T. cruzi infected cells. The physical definition of amastigote DNA was identified by Hoechst, with the only modification being that as there was no cytoplasmic marker, thus segmentation borders in the Hoechst channel were applied, which effectively separated host cells (Fig 2). Further building blocks were added to calculate the intensity of Alexa Fluor 488 within the spots identified by Hoechst, in infected cells. This script was first applied to images to determine the mean fluorescence intensity in the Alexa 488 channel of Hoechst identified parasites, without the addition of the chemical label. The mean plus three times the standard deviation of this intensity was used to define values above background, thus the minimum intensity above background required to identify parasite DNA which successfully incorporated the chemical label. An input box was incorporated into the script, in which this minimum intensity above background was entered. Parameters of the developed script, “CHEMICAL LABEL INCORPORATION” are shown in S1 Table.
# • Number of T. cruzi amastigote infected cells (≥5 parasites per cell, identified with Hoechst). • Number of Hoechst identified T. cruzi parasites (in infected cells). • Number of parasites incorporating chemical label (T. cruzi parasites with Alexa 488 intensity above background, in infected cells). • % chemical label incorporation. Alexa 488 spots in infected cells (above background) NO / Hoechst spots in infected cells NO *100 = Percentage colocalisation; where NO = number of objects. • Number of host cells.
# HEK293 cells = assay: Redox-based assay to assess HEK293 viability; assay type: cell-based, human; details: 48 hours exposure, highest test concentration 87 μM, EdU value estimated, relative to Emax plateau of 57%
# Experimental: To determine the effect of the nucleoside analogues against a replicating mammalian cell line, analogues were tested against HEK293 cells, utilising a REDOX-based metabolic assay to assess cell viability as previously described. […] Experiments were performed over two biological replicates.
# [3] = Trypanosoma cruzi, 48 hours exposure, well-established intracellular infection assay, mean ± SD, POSA value based on sub-optimal effect (Emax 75%), read-out: IC50 value Infected cells (Hoechst)
# [4] = Trypanosoma cruzi, then 0.37 μM EdU for 4 hours, number of EdU incorporating parasites, read-out: IC50 value Amastigotes (EdU)
# [5] = Trypanosoma cruzi, number of Hoechst identified parasites in infected cells, read-out: IC50 value Amastigotes (Hoechst)
# [6] = 24 hours exposure, highest test concentration 183 μM
# [7] = 48 hours incubation, highest test concentration 183 μM
# [8] = Trypanosoma cruzi, 48 h, 48 hours incubation
Structure (SMILES),"IC50 [1, 3] [nM]","IC50 [2, 4] [nM]","IC50 [2, 5] [nM]","T. cruzi 24 IC50 value [1, 6]","T. cruzi Wash off IC50 value [1, 7]","T. cruzi 48 IC50 value [1, 7]","inhibition at 183 µM [1, 8] [%]",Host cell 3T3 IC50 value 48 h (3T3 cells),incorporation into T. cruzi DNA following 48 hours incubation (in words) (T. cruzi amastigote DNA),incorporation (no incorporation observed) (T. cruzi amastigote DNA; 48 hours) [%],HEK293 IC50 value (HEK293 cells),other results
"O=C(Cn1ccnc1[N+](=O)[O-])NCc1ccccc1 [BZ, benznidazole]",6700 ± 640,1290 ± 250,2800 ± 940,–,–,–,–,–,–,–,–,"inhibition at 127 µM ([2]; Trypanosoma cruzi, 2 h, read-out: mean inhibition of incorporation of EdU into the parasite DNA): 72 ± 8.7%"
"C#Cc1cn([C@@H]2O[C@H](CO)[C@@H](O)[C@@H]2Br)c(=O)[nH]c1=O [Br-ara-EdU, (2′S)-2′-bromo-2′-deoxy-5-ethynyl-uridine]",–,–,–,NA (NA = ≤50% activity at the highest concentration tested and an IC50 value could not be determined),NA (NA = ≤50% activity at the highest concentration tested and an IC50 value could not be determined),NA (NA = ≤50% activity at the highest concentration tested and an IC50 value could not be determined),≤ 50,NA (NA = ≤50% activity at the highest concentration tested and an IC50 value could not be determined),did not,< 20,NA (NA = ≤50% activity at the highest concentration tested and an IC50 value could not be determined),–
"C#Cc1cn([C@@H]2O[C@H](CO)[C@@H](O)[C@@H]2Cl)c(=O)[nH]c1=O [Cl-ara-EdU, (2′S)-chloro-2′-deoxy-5-ethynyl-uridine]",–,–,–,NA (NA = ≤50% activity at the highest concentration tested and an IC50 value could not be determined),NA (NA = ≤50% activity at the highest concentration tested and an IC50 value could not be determined),NA (NA = ≤50% activity at the highest concentration tested and an IC50 value could not be determined),≤ 50,NA (NA = ≤50% activity at the highest concentration tested and an IC50 value could not be determined),did not,< 20,NA (NA = ≤50% activity at the highest concentration tested and an IC50 value could not be determined),–
"C#Cc1cn([C@@H]2O[C@H](CO)[C@@H](O)[C@@H]2F)c(=O)[nH]c1=O [F-ara-EdU, (2S′)-2′-deoxy-2′-fluoro-5-ethynyl-uridine]",–,–,–,NA (NA = ≤50% activity at the highest concentration tested and an IC50 value could not be determined),NA (NA = ≤50% activity at the highest concentration tested and an IC50 value could not be determined),NA^3 (NA = ≤50% activity at the highest concentration tested and an IC50 value could not be determined),≤ 50,NA (NA = ≤50% activity at the highest concentration tested and an IC50 value could not be determined),incorporated,–,NA (NA = ≤50% activity at the highest concentration tested and an IC50 value could not be determined),"inhibition at 73 µM ([1]; Trypanosoma cruzi, 48 h, 73 μM, 48 hours incubation, read-out: inhibition / activity against T. cruzi amastigotes at 73 μM): < 50%; incorporation into parasite DNA following 2 hours exposure (T. cruzi amastigote DNA; 2 hours exposure): No incorporation; % of T. cruzi parasites with incorporation (T. cruzi amastigote DNA; 4 hours, 73 μM): 36 ± 7.3%; % of parasites with analogue incorporated (T. cruzi amastigote DNA; 48 hours, top concentration 73 μM): 91 ± 0.23%"
"CC[C@@H]([C@H](C)O)n1ncn(-c2ccc(N3CCN(c4ccc(OC[C@@H]5CO[C@@](Cn6cncn6)(c6ccc(F)cc6F)C5)cc4)CC3)cc2)c1=O [POSA, posaconazole]",4 ± 8.2,3.8 ± 1,3.8 ± 1,–,–,–,–,–,–,–,–,"Emax ([1]; Trypanosoma cruzi, 48 hours, infected cells (Hoechst), read-out: maximum activity (Emax) against T. cruzi): 75%; inhibition of EdU incorporation ([2]; 2 hours exposure, 1 μM (250 x the IC50 value), then 1.83 μM EdU 2 hours): no inhibition"
"COc1ccc(C[C@H](N)C(=O)N[C@H]2[C@@H](O)[C@H](n3cnc4c(N(C)C)ncnc43)O[C@@H]2CO)cc1 [PURO, puromycin]",–,–,–,–,–,–,–,–,–,–,–,"IC50 ([1]; Trypanosoma cruzi, 24 hours exposure, highest test concentration 183 μM, read-out: T. cruzi 24 IC50 value): 7600 ± 1200 nM; Emax ([1]; Trypanosoma cruzi, 24 hours exposure, read-out: T. cruzi 24 relative Emax (in brackets) (converted)): 92%; IC50 ([1]; Trypanosoma cruzi, 48 hours incubation, highest test concentration 183 μM, read-out: T. cruzi 48 IC50 value): 2360 ± 780 nM; Emax ([1]; Trypanosoma cruzi, 48 hours incubation, read-out: T. cruzi 48 relative Emax (in brackets) (converted)): 100%; IC50 (3T3 cells; Mus musculus, NIH3T3, read-out: Host cell 3T3 IC50 value 48 h): 4400 ± 800 nM; IC50 (HEK293 cells; Homo sapiens, HEK293): 410 ± 170 nM"
